In patent US20240360137A1 (Novartis AG, priority 2023, published 2024):

Assays:
Experiment in all cases: CDKi biochemical assay (TR-FRET, phosphorylation of S780 on RB1 peptide)
CDK4/cyclinD1 = CDK4/cyclinD1 (Homo sapiens, UniProt P11802); details: CDK4/cyclinD1 20 pM, 1 mM ATP, 60 min at 25° C.
In short: (§1)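 Avi-tagged, biotinylated CDK4/cyclinD1 (20 pM) or CDK6/cyclinD3 (10 pM) phosphorylates 200 nM His-MBP-RB1[773-924] at S780 with 1 mM ATP in HEPES pH 7.5/MgCl2, 60 min, 25° C. After EDTA quench, Eu anti-pRB(S780)/SA-APC TR-FRET is read after 3 h. Apparent IC50 comes from % activity versus log concentration.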

CDK6/cyclinD3 = CDK6/cyclinD3 (Homo sapiens, UniProt Q00534); details: CDK6/cyclinD3 10 pM, 1 mM ATP, 60 min at 25° C.
In short: as §1

CDK1/CyclinB1 = CDK1/CyclinB1 (Homo sapiens, UniProt P06493); details: CDK1/CyclinB1 10 pM, 1 mM ATP, 60 min at 25° C.
In short: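 CDK1/CyclinB1 (10 pM, Avi-tagged, insect-cell expressed) phosphorylated S780 of His-MBP-RB1[773-924] (200 nM) with 1 mM ATP in HEPES pH 7.5, 10 mM MgCl2, 1 mM DTT, 60 min at 25 °C. After EDTA quench, TR-FRET detection (Eu anti-pRB S780, SA-APC) for 3 h; apparent IC50 from percent activity versus log concentration.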

CDK2/CyclinE1 = CDK2/CyclinE1 (Homo sapiens, UniProt P24941); details: CDK2/CyclinE1 100 pM, 1 mM ATP, 60 min at 25° C.
In short: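 CDK2/CyclinE1 (Avi-tag, 100 pM; CDK2 E. coli-expressed) phosphorylated His-MBP-RB1[773-924] (200 nM) at S780 with 1 mM ATP in HEPES pH 7.5/MgCl2/DTT, 60 min at 25° C. After EDTA quench, TR-FRET detection ran 3 h (Eu anti-p-RB S780, SA-APC). Apparent IC50 came from percent activity versus log concentration.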

SMILES | IC50 (CDK4/cyclinD1) | IC50 (CDK6/cyclinD3) | IC50 (CDK1/CyclinB1) | IC50 (CDK2/CyclinE1)
O=C1N([C@@H]2CCC[C@@H](O)C2)c2nc(Nc3c[nH]nc3OC3CCOCC3)ncc2C12CC2 [Example 74, 7′-((1R,3R)-3-hydroxycyclohexyl)-2′-((3-((tetrahydro-2H-pyran-4-yl)oxy)-1H-pyrazol-4-yl)amino)spiro[cyclopropane-1,5′-pyrrolo[2,3-d]pyrimidin]-6′(7′H)-one] | ≥ 10 µM | ≥ 10 µM | ≥ 10 µM | 0.255 µM
CCOc1n[nH]cc1Nc1ncc2c(n1)N([C@@H]1CCC[C@@H](O)C1)C(=O)C21CC1 [Example 23, 2′-((3-ethoxy-1H-pyrazol-4-yl)amino)-7′-((1R,3R)-3-hydroxycyclohexyl)spiro[cyclopropane-1,5′-pyrrolo[2,3-d]pyrimidin]-6′(7′H)-one] | 9.45 µM | ≥ 10 µM | 2.43 µM | 0.015 µM
O=C1N([C@@H]2CCC[C@@H](O)C2)c2nc(Nc3c[nH]nc3-c3cnn4ccncc34)ncc2C12CC2 [Example 64, 7′-((1R,3R)-3-hydroxycyclohexyl)-2′-((3-(pyrazolo[1,5-a]pyrazin-3-yl)-1H-pyrazol-4-yl)amino)spiro[cyclopropane-1,5′-pyrrolo[2,3-d]pyrimidin]-6′(7′H)-one] | 4.7 µM | 6.49 µM | 2.19 µM | 0.012 µM
COc1n[nH]cc1Nc1ncc2c(n1)N([C@@H]1CCC[C@@H](O)C1)C(=O)C21CC1 [Example 12, 7′-((1R,3R)-3-hydroxycyclohexyl)-2′-((3-methoxy-1H-pyrazol-4-yl)amino)spiro[cyclopropane-1,5′-pyrrolo[2,3-d]pyrimidin]-6′(7′H)-one] | 7.37 µM | 7.9 µM | 2.24 µM | 0.02 µM
O=C1N([C@@H]2CCC[C@@H](O)C2)c2nc(Nc3c[nH]nc3O[C@@H]3CC3(F)F)ncc2C12CC2 [Example 70, 2′-((3-((R)-2,2-difluorocyclopropoxy)-1H-pyrazol-4-yl)amino)-7′-((1R,3R)-3-hydroxycyclohexyl)spiro[cyclopropane-1,5′-pyrrolo[2,3-d]pyrimidin]-6′(7′H)-one] | 7.69 µM | ≥ 10 µM | 0.82 µM | 0.006 µM
O=C1N([C@@H]2CCC[C@@H](O)C2)c2nc(Nc3c[nH]nc3O[C@@H]3COC[C@@H]3F)ncc2C12CC2 [Example 26, 2′-((3-(((3R,4S)-4-fluorotetrahydrofuran-3-yl)oxy)-1H-pyrazol-4-yl)amino)-7′-((1R,3R)-3-hydroxycyclohexyl)spiro[cyclopropane-1,5′-pyrrolo[2,3-d]pyrimidin]-6′(7′H)-one] | 5.35 µM | 8.5 µM | ≥ 10 µM | 0.059 µM
O=C1N([C@@H]2CCC[C@@H](O)C2)c2nc(Nc3c[nH]nc3-c3nnco3)ncc2C12CC2 [Example 83, 2′-((3-(1,3,4-oxadiazol-2-yl)-1H-pyrazol-4-yl)amino)-7′-((1R,3R)-3-hydroxycyclohexyl)spiro[cyclopropane-1,5′-pyrrolo[2,3-d]pyrimidin]-6′(7′H)-one] | 2.18 µM | 2.67 µM | 8.62 µM | 0.031 µM
O=C1N([C@@H]2CCC[C@@H](O)C2)c2nc(Nc3c[nH]nc3OC3CC(F)(F)C3)ncc2C12CC2 [Example 29, 2′-((3-(3,3-difluorocyclobutoxy)-1H-pyrazol-4-yl)amino)-7′-((1R,3R)-3-hydroxycyclohexyl)spiro[cyclopropane-1,5′-pyrrolo[2,3-d]pyrimidin]-6′(7′H)-one] | 7.4 µM | ≥ 10 µM | 3.84 µM | 0.026 µM
CC#Cc1n[nH]cc1Nc1ncc2c(n1)N([C@@H]1CCC[C@@H](O)C1)C(=O)C21CC1 [Example 58, 7′-((1R,3R)-3-hydroxycyclohexyl)-2′-((3-(prop-1-yn-1-yl)-1H-pyrazol-4-yl)amino)spiro[cyclopropane-1,5′-pyrrolo[2,3-d]pyrimidin]-6′(7′H)-one] | 9.5 µM | ≥ 10 µM | 3.54 µM | 0.016 µM
C[C@]1(O)C[C@H](COc2n[nH]cc2Nc2ncc3c(n2)N([C@@H]2CCC[C@@H](O)C2)C(=O)C32CC2)C1 [Example 65, 2′-((3-(((1r,3R)-3-hydroxy-3-methylcyclobutyl)methoxy)-1H-pyrazol-4-yl)amino)-7′-((1R,3R)-3-hydroxycyclohexyl)spiro[cyclopropane-1,5′-pyrrolo[2,3-d]pyrimidin]-6′(7′H)-one] | 6.9 µM | ≥ 10 µM | 4.49 µM | 0.053 µM
O=C1N([C@@H]2CCC[C@@H](O)C2)c2nc(Nc3c[nH]nc3OC[C@H]3COCCO3)ncc2C12CC2 [Example 66, 2′-((3-(((R)-1,4-dioxan-2-yl)methoxy)-1H-pyrazol-4-yl)amino)-7′-((1R,3R)-3-hydroxycyclohexyl)spiro[cyclopropane-1,5′-pyrrolo[2,3-d]pyrimidin]-6′(7′H)-one] | ≥ 10 µM | ≥ 10 µM | 4.22 µM | 0.051 µM
O=C1N([C@@H]2CCC[C@@H](O)C2)c2nc(Nc3c[nH]nc3Cl)ncc2C12CC2 [Example 13, 2′-((3-chloro-1H-pyrazol-4-yl)amino)-7′-((1R,3R)-3-hydroxycyclohexyl)spiro[cyclopropane-1,5′-pyrrolo[2,3-d]pyrimidin]-6′(7′H)-one] | 5.28 µM | 7.1 µM | 0.92 µM | 0.012 µM
O=C1N([C@@H]2CCC[C@@H](O)C2)c2nc(Nc3c[nH]nc3O[C@H]3CCOC3)ncc2C12CC2 [Example 78, 7′-((1R,3R)-3-hydroxycyclohexyl)-2′-((3-(((S)-tetrahydrofuran-3-yl)oxy)-1H-pyrazol-4-yl)amino)spiro[cyclopropane-1,5′-pyrrolo[2,3-d]pyrimidin]-6′(7′H)-one] | 2.6 µM | 3.54 µM | 2.54 µM | 0.017 µM
O=C1N([C@@H]2CCC[C@@H](O)C2)c2nc(Nc3c[nH]nc3O[C@@H]3COC[C@H]3F)ncc2C12CC2 [Example 24, 2′-((3-(((3R,4R)-4-fluorotetrahydrofuran-3-yl)oxy)-1H-pyrazol-4-yl)amino)-7′-((1R,3R)-3-hydroxycyclohexyl)spiro[cyclopropane-1,5′-pyrrolo[2,3-d]pyrimidin]-6′(7′H)-one] | 3.91 µM | ≥ 10 µM | 2.02 µM | 0.012 µM
Cc1n[nH]cc1Nc1ncc2c(n1)N([C@@H]1CCCC[C@@H](O)C1)C(=O)C21CC1 [Example 17, 7′-(3-hydroxycycloheptyl)-2′-((3-methyl-1H-pyrazol-4-yl)amino)spiro[cyclopropane-1,5′-pyrrolo[2,3-d]pyrimidin]-6′(7′H)-one] | ≥ 10 µM | ≥ 10 µM | 4.49 µM | 0.041 µM
Cn1ncc(-c2n[nH]cc2Nc2ncc3c(n2)N([C@@H]2CCC[C@@H](O)C2)C(=O)C32CC2)c1C(F)F [Example 31, 2′-((5′-(difluoromethyl)-1′-methyl-1H,1′H-[3,4′-bipyrazol]-4-yl)amino)-7′-((1R,3R)-3-hydroxycyclohexyl)spiro[cyclopropane-1,5′-pyrrolo[2,3-d]pyrimidin]-6′(7′H)-one] | 6.3 µM | 9.7 µM | 6.57 µM | 0.021 µM
CN1C[C@@H](F)[C@H](Oc2n[nH]cc2Nc2ncc3c(n2)N([C@@H]2CCC[C@@H](O)C2)C(=O)C32CC2)C1 [Example 50, 2′-((3-(((3R,4R)-4-fluoro-1-methylpyrrolidin-3-yl)oxy)-1H-pyrazol-4-yl)amino)-7′-((1R,3R)-3-hydroxycyclohexyl)spiro[cyclopropane-1,5′-pyrrolo[2,3-d]pyrimidin]-6′(7′H)-one] | ≥ 10 µM | ≥ 10 µM | ≥ 10 µM | 0.125 µM
O=C1N([C@@H]2CCC[C@@H](O)C2)c2nc(Nc3c[nH]nc3C3CC3(F)F)ncc2C12CC2 (single isomer, unassigned) [Example 32] | 2.76 µM | 4.8 µM | 0.34 µM | 0.006 µM
Cn1cc(Oc2n[nH]cc2Nc2ncc3c(n2)N([C@@H]2CCC[C@@H](O)C2)C(=O)C32CC2)cn1 [Example 35, 7′-((1R,3R)-3-hydroxycyclohexyl)-2′-((3-((1-methyl-1H-pyrazol-4-yl)oxy)-1H-pyrazol-4-yl)amino)spiro[cyclopropane-1,5′-pyrrolo[2,3-d]pyrimidin]-6′(7′H)-one] | ≥ 10 µM | ≥ 10 µM | 3.16 µM | 0.054 µM
O=C1N([C@@H]2CCC[C@@H](O)C2)c2nc(Nc3c[nH]nc3[C@@H]3CC3(F)F)ncc2C12CC2 [Example 33, 2′-((3-((S)-2,2-difluorocyclopropyl)-1H-pyrazol-4-yl)amino)-7′-((1R,3R)-3-hydroxycyclohexyl)spiro[cyclopropane-1,5′-pyrrolo[2,3-d]pyrimidin]-6′(7′H)-one] | ≥ 10 µM | ≥ 10 µM | 3.76 µM | 0.049 µM
